The supplement of paper PMC10307832

Legend:
Experiment in all cases: relative viability (nuclei count vs DMSO), 5 days (fraction); higher = more cells survive
[1] = tested on: NCI-H838
Summary of the method: (§1)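 Relative viability is defined as nuclei in treated wells over nuclei in vehicle wells. Duplicate plates were run and medians reported. Lung cancer cell lines in 1536-well plates were dosed by pin tool one day after seeding, with one drug or with a fixed anchor-drug dose plus five library-drug doses (not always all listed) in √10 steps, and nuclei were counted after 5 days.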

[2] = tested on: NCI-H322M
Summary of the method: as §1

[3] = tested on: UMC-11
Summary of the method: as §1

[4] = tested on: NCI-H1755
Summary of the method: as §1

[5] = tested on: NCI-H2228
Summary of the method: as §1

[6] = tested on: PC-14
Summary of the method: as §1

[7] = tested on: NCI-H1734
Summary of the method: as §1

[8] = tested on: NCI-H1793
Summary of the method: as §1

[9] = tested on: NCI-H647
Summary of the method: as §1

[10] = tested on: NCI-H2170
Summary of the method: as §1

[11] = tested on: NCI-H1993
Summary of the method: as §1

[12] = tested on: COR-L23
Summary of the method: as §1

[13] = tested on: COR-L 105
Summary of the method: as §1

[14] = tested on: HARA
Summary of the method: as §1

[15] = tested on: NCI-H1355
Summary of the method: as §1

[16] = tested on: NCI-H2009
Summary of the method: as §1

[17] = tested on: HOP-62
Summary of the method: as §1

[18] = tested on: NCI-H2347
Summary of the method: as §1

[19] = tested on: EKVX
Summary of the method: as §1

[20] = tested on: NCI-H1395
Summary of the method: as §1

[21] = tested on: SK-MES-1
Summary of the method: as §1

C[C@@H]1CN(CC(=O)Nc2ccc3c(c2)Cc2cccc(-c4cc(=O)cc(N5CCOCC5)o4)c2S3)C[C@H](C)O1 + CC1(C)CCC(c2ccc(Cl)cc2)=C(CN2CCN(c3ccc(C(=O)NS(=O)(=O)c4ccc(N[C@H](CCN5CCOCC5)CSc5ccccc5)c(S(=O)(=O)C(F)(F)F)c4)cc3)CC2)C1 [Navitoclax] (partner 0.5 µM) showed a relative viability ([1]; first compound 0.04 µM) of 1.17, a relative viability ([1]; first compound 0.1265 µM) of 1.16 and a relative viability ([1]; first compound 0.4 µM) of 1.07. For the same compound, the relative viability ([1]; first compound 4 µM) was 0.896, the relative viability ([2]; first compound 0.04 µM) was 1.17 and the relative viability ([2]; first compound 0.1265 µM) was 1.18. The relative viability ([2]; first compound 0.4 µM) was 1.23, the relative viability ([2]; first compound 4 µM) was 1.12 and the relative viability ([3]; first compound 0.04 µM) was 0.32. The relative viability ([3]; first compound 0.1265 µM) was 0.288, the relative viability ([3]; first compound 0.4 µM) was 0.301 and the relative viability ([3]; first compound 4 µM) was 0.229. For the same compound, the relative viability ([4]; first compound 0.04 µM) was 1.02, the relative viability ([4]; first compound 0.1265 µM) was 0.945 and the relative viability ([4]; first compound 0.4 µM) was 0.924. The relative viability ([4]; first compound 4 µM) was 0.92, the relative viability ([5]; first compound 0.04 µM) was 1.02 and the relative viability ([5]; first compound 0.1265 µM) was 1.11. The relative viability ([5]; first compound 0.4 µM) was 0.639, the relative viability ([5]; first compound 4 µM) was 0.753 and the relative viability ([6]; first compound 0.04 µM) was 1.04. For the same compound, the relative viability ([6]; first compound 0.1265 µM) was 0.987, the relative viability ([6]; first compound 0.4 µM) was 1.01 and the relative viability ([6]; first compound 4 µM) was 0.797. It also gave a relative viability ([7]; first compound 0.04 µM) of 0.783, a relative viability ([7]; first compound 0.1265 µM) of 0.886 and a relative viability ([7]; first compound 0.4 µM) of 0.808. For the same compound, the relative viability ([7]; first compound 4 µM) was 0.923, the relative viability ([8]; first compound 0.04 µM) was 0.495 and the relative viability ([8]; first compound 0.1265 µM) was 0.341. It also gave a relative viability ([8]; first compound 0.4 µM) of 0.322, a relative viability ([8]; first compound 4 µM) of 0.377 and a relative viability ([9]; first compound 0.04 µM) of 0.989. It also gave a relative viability ([9]; first compound 0.1265 µM) of 1.09, a relative viability ([9]; first compound 0.4 µM) of 1.09 and a relative viability ([9]; first compound 4 µM) of 0.591. The relative viability ([10]; first compound 0.1265 µM) was 0.617, the relative viability ([10]; first compound 0.4 µM) was 0.471 and the relative viability ([10]; first compound 4 µM) was 0.475. It also gave a relative viability ([11]; first compound 0.04 µM) of 0.933, a relative viability ([11]; first compound 0.1265 µM) of 0.868 and a relative viability ([11]; first compound 0.4 µM) of 0.644. The relative viability ([11]; first compound 4 µM) was 0.865, the relative viability ([12]; first compound 0.04 µM) was 1.25 and the relative viability ([12]; first compound 0.1265 µM) was 0.985. For the same compound, the relative viability ([12]; first compound 0.4 µM) was 1.17, the relative viability ([12]; first compound 4 µM) was 0.962 and the relative viability ([13]; first compound 0.04 µM) was 1.01. For the same compound, the relative viability ([13]; first compound 0.1265 µM) was 0.801, the relative viability ([13]; first compound 0.4 µM) was 0.728 and the relative viability ([13]; first compound 4 µM) was 0.686. For the same compound, the relative viability ([14]; first compound 0.04 µM) was 1.2, the relative viability ([14]; first compound 0.1265 µM) was 1.12 and the relative viability ([14]; first compound 0.4 µM) was 1.21. For the same compound, the relative viability ([14]; first compound 4 µM) was 1.14, the relative viability ([15]; first compound 0.04 µM) was 0.978 and the relative viability ([15]; first compound 0.1265 µM) was 0.894. The relative viability ([15]; first compound 0.4 µM) was 0.856, the relative viability ([15]; first compound 4 µM) was 0.899 and the relative viability ([16]; first compound 0.04 µM) was 1.17. For the same compound, the relative viability ([16]; first compound 0.1265 µM) was 1.1, the relative viability ([16]; first compound 0.4 µM) was 1.15 and the relative viability ([16]; first compound 4 µM) was 0.915. The relative viability ([17]; first compound 0.04 µM) was 0.879, the relative viability ([17]; first compound 0.1265 µM) was 0.979 and the relative viability ([17]; first compound 0.4 µM) was 1.14. It also gave a relative viability ([17]; first compound 4 µM) of 1.01, a relative viability ([18]; first compound 0.04 µM) of 0.768 and a relative viability ([18]; first compound 0.1265 µM) of 0.81. It also gave a relative viability ([18]; first compound 0.4 µM) of 0.769, a relative viability ([18]; first compound 4 µM) of 0.672 and a relative viability ([19]; first compound 0.04 µM) of 0.899. For the same compound, the relative viability ([19]; first compound 0.1265 µM) was 0.894, the relative viability ([19]; first compound 0.4 µM) was 0.862 and the relative viability ([19]; first compound 4 µM) was 0.812. It also gave a relative viability ([20]; first compound 0.04 µM) of 1.16, a relative viability ([20]; first compound 0.1265 µM) of 1.26 and a relative viability ([20]; first compound 0.4 µM) of 1.35. The relative viability ([20]; first compound 4 µM) was 1.16, the relative viability ([21]; first compound 0.04 µM) was 1.37 and the relative viability ([21]; first compound 0.1265 µM) was 1.16. It also gave a relative viability ([21]; first compound 0.4 µM) of 1.1 and a relative viability ([21]; first compound 4 µM) of 1.1.
